Source: patent EP0072121A1, “Beta-lactam antibiotics” (BEECHAM GROUP PLC, priority 1981, dated 1983)
In brackets after ≈: the same amount, converted by molar mass.

Columns and labels:
Assay in all cases: standard MIC test
Type in all cases: cell-based
Bacillus subtilis A = test system: Bacillus subtilis A
From the text: (§1) In a standard MIC test the compound of Examples 1 and 2 afforded the following data (µg/ml).

Citrobacter freundii E8 = test system: Citrobacter freundii E8
From the text: as §1

[1] = test system: Enterobacter cloacae N1 [T753]
From the text: as §1

Escherichia coli ESS = test system: Escherichia coli ESS
From the text: as §1

Escherichia coli JT20 = test system: Escherichia coli JT20
From the text: as §1

[2] = test system: Escherichia coli JT39 [E96]
From the text: as §1

Escherichia coli JT410 = test system: Escherichia coli JT410
From the text: as §1

[3] = test system: Escherichia coli O111 [E8]
From the text: as §1

[4] = test system: Klebsiella aerogenes A [T767]
From the text: as §1

[5] = test system: Klebsiella aerogenes Ba95
From the text: as §1

[6] = test system: Proteus mirabilis 977 [13]
From the text: as §1

Proteus morganii 1580 = conditions: Morganella morganii
From the text: as §1

Proteus rettgeri WM16 = conditions: Providencia rettgeri
From the text: as §1

Proteus vulgaris W091 = test system: Proteus vulgaris W091
From the text: as §1

Pseudomonas Dalgleish = test system: Pseudomonas Dalgleish
From the text: as §1

[7] = test system: Pseudomonas aeruginosa A [11]
From the text: as §1

[8] = test system: Salmonella typhimurium CT10; conditions: Salmonella enterica
From the text: as §1

Shigella sonnei MB11967 = test system: Shigella sonnei MB11967
From the text: as §1

[9] = test system: Staphylococcus aureus 1517
From the text: as §1

[10] = test system: Staphylococcus aureus Oxford
From the text: as §1

[11] = test system: Staphylococcus aureus Russell MB9
From the text: as §1

[12] = test system: Streptococcus pneumoniae CN33
From the text: as §1

Streptocuccus faecalis I = test system: Streptocuccus faecalis I
From the text: as §1

[13] = test system: Streptocuccus pyogenes CN10
From the text: as §1

SMILES | MIC (Bacillus subtilis A) [µg/mL] | MIC (Citrobacter freundii E8) [µg/mL] | MIC [1] [µg/mL] | MIC (Escherichia coli ESS) [µg/mL] | MIC (Escherichia coli JT20) [µg/mL] | MIC [2] [µg/mL] | MIC (Escherichia coli JT410) [µg/mL] | MIC [3] [µg/mL] | MIC [4] [µg/mL] | MIC [5] [µg/mL] | MIC [6] [µg/mL] | MIC (Proteus morganii 1580) [µg/mL] | MIC (Proteus rettgeri WM16) [µg/mL] | MIC (Proteus vulgaris W091) [µg/mL] | MIC (Pseudomonas Dalgleish) [µg/mL] | MIC [7] [µg/mL] | MIC [8] [µg/mL] | MIC (Shigella sonnei MB11967) [µg/mL] | MIC [9] [µg/mL] | MIC [10] [µg/mL] | other results
CC(=N)NCCOC(=O)/C=C\SC1=C(C(=O)O)N2C(=O)[C@@H]([C@H](C)O)[C@H]2C1 [Ex.1, (5R,6R)-3-[(Z)-2-Acetimidoylaminoethyloxycarbonyl-ethenylthio]-6-[(S)-1-hydroxyethyl]-7-oxo-1-azabicyclo[3.2.0]hept-2-ene-2-carboxylic acid] | ≤ 0.1 | 0.4 (≈ 1.04 µM) | 3.1 (≈ 8.09 µM) | ≤ 0.1 | 3.1 (≈ 8.09 µM) | 0.2 (≈ 0.522 µM) | 0.2 (≈ 0.522 µM) | 0.2 (≈ 0.522 µM) | 0.2 (≈ 0.522 µM) | 3.1 (≈ 8.09 µM) | 0.4 (≈ 1.04 µM) | 1.6 (≈ 4.17 µM) | 1.6 (≈ 4.17 µM) | 3.1 (≈ 8.09 µM) | 25 (≈ 65.2 µM) | 25 (≈ 65.2 µM) | 0.2 (≈ 0.522 µM) | 0.2 (≈ 0.522 µM) | 0.8 (≈ 2.09 µM) | ≤ 0.1 | MIC [11]: ≤ 0.1 µg/mL; MIC [12]: ≤ 0.1 µg/mL; MIC (Streptocuccus faecalis I): ≤ 0.1 µg/mL; MIC [13]: ≤ 0.1 µg/mL
CC(=N)NCCOC(=O)/C=C\SC1=C(C(=O)O)N2C(=O)[C@H]([C@@H](C)O)[C@H]2C1 [Ex.2, (5R,6S)-3-[(S)-2-Acetimidoylaminoethyloxycarbonyl-ethenylthio]-6-[(R)-1-hydroxyethyl]-7-oxo-1-azabicyclo [3.2.0]hept-2-ene-2-carboxylic acid] | < 0.1 | 0.4 (≈ 1.04 µM) | 0.8 (≈ 2.09 µM) | 0.2 (≈ 0.522 µM) | 0.2 (≈ 0.522 µM) | 0.2 (≈ 0.522 µM) | 0.2 (≈ 0.522 µM) | 0.2 (≈ 0.522 µM) | 0.2 (≈ 0.522 µM) | 0.4 (≈ 1.04 µM) | 0.8 (≈ 2.09 µM) | 1.6 (≈ 4.17 µM) | 0.8 (≈ 2.09 µM) | 0.8 (≈ 2.09 µM) | 25 (≈ 65.2 µM) | 25 (≈ 65.2 µM) | 0.2 (≈ 0.522 µM) | 0.2 (≈ 0.522 µM) | 1.6 (≈ 4.17 µM) | ≤ 0.1 | MIC [11]: ≤ 0.1 µg/mL; MIC (Streptocuccus faecalis I): 0.2 µg/mL (≈ 0.522 µM)
